Like-named read-outs stand apart in the source and are kept apart here.
Assay: Release rate of acetaldehyde from precursor (acid hydrolysis) in phosphate buffer, UV extinction at 280 nm
Assay type: physicochemical
Details: for half-life at 2.5 mg/mL: phosphate buffer; for rate constant k: Precursor + H2O -> Ethanol + Acetaldehyde
Procedure: The release rate of acetaldehyde from the precursor according to formula II with n=1 is measured and compared to 1,2-di[(1′-ethoxy)ethoxy]propane and acetaldehyde diethyl. The measurements are conducted as described in S. M. Oon and D. G. Kubler, “Hydrolysis of Aldal Acetals”, J. Org. Chem., 1982, 47, 1166-1171. A phosphate buffer solution (2 mL) is placed into a quartz cuvette and 5 mg of the respective acetaldehyde precursor is added. The mixture is mixed well and sealed using Parafilm™. The release of acetaldehyde is monitored in a UV-Photometer measuring the increase of the extinction at 280 nm over time. Depending on reaction speed, all 3 to 10 seconds measurements are conducted. […] by the formula C(t)=C0+Cx×(1−e^−kt), wherein C(t) the absorption corresponding to the concentration of acetaldehyde at time t, C0 absorption corresponding to the concentration of acetaldehyde at time t=0, Cx the total amount of acetaldehyde present in the precursor, k the rate constant and t the reaction time. The rate constants are calculated by a numeric approximation program (TABLE CURVE 2D, ©AISN Software Inc.). The half life time λ is calculated from the rate constant using the equation λ=−ln(0.5)/k.

[1] = pH 3.5, read-out: half-life (acetaldehyde release) (converted)
[2] = pH 3.0, read-out: half-life (acetaldehyde release) (converted)

Compound | half-life at 2.5 mg/mL [1] | half-life at 2.5 mg/mL [2] | release of acetaldehyde (acidic conditions) | stability (neutral pH conditions) | rate constant k (pH 2.8) | rate constant k (pH 3.18) | rate constant k (pH 3.81) | rate constant k (pH 4.14) | half-life at 2.5 mg/mL (pH 2.8, calculated from rate constant, read-out: half life time λ (converted)) | half-life at 2.5 mg/mL (pH 3.18, calculated from rate constant, read-out: half life time λ (converted)) | half-life at 2.5 mg/mL (pH 3.81, calculated from rate constant, read-out: half life time λ (converted)) | half-life at 2.5 mg/mL (pH 4.14, calculated from rate constant, read-out: half life time λ (converted))
CCOC(C)OCC(C)OC(C)OCC (stereo not shown) [1,2-di[(1′-ethoxy)ethoyx]propane, 1,2-di[(1′-ethoxy)ethoxy]propane, reference compound] | 65.1 min | 10.4 min | – | – | – | – | – | – | – | – | – | –
CCOC(C)OC(C)OCC (stereo not shown) [1-ethoxy-1-(1-ethoxy-ethoxy)-ethane] | 16.1 min | 5.1 min | rapidly releases acetaldehyde | stable | 0.005966 s⁻¹ | 0.003446 s⁻¹ | 0.00069 s⁻¹ | 0.000382 s⁻¹ | 1.93 min | 3.35 min | 16.7 min | 30.2 min
CCOC(C)OCC [acetaldehyde diethyl acetal, reference compound] | 41.5 min | 9.65 min | – | – | – | – | – | – | – | – | – | –
